Measured values: patent US4714764A, “2-(4-pyridylaminomethyl)-benzimidazole derivatives having antiviral activity” (Maruishi Seiyaku Kabushiki Kaisha, priority 1985, dated 1987)
Structures can show the parent of a compound that is named as a salt.

Legend:
[1] = Morphological cytotoxicity in LLC-MK2 cells; type: cell-based; conditions: monkey, 33° C., examined at 48, 72, 96 and 120 h, read-out: CD50 (lowest concentration that caused morphological cytotoxicity by 50% or more)
enterovirus type 70 = experiment: Inhibition of virus cytopathogenic effect (CPE) in LLC-MK2 cells; type: cell-based; conditions: for CI (chemotherapeutic index): CI=CD50 /ID50; for IC50: Enterovirus D, enterovirus type 70, 100-300 TCID50, LLC-MK2 cells, 33° C., examined at 48, 72, 96 and 120 h, read-out: IC50 (lowest concentration that reduced virus CPE by 50% or more)

| IC50 (enterovirus type 70) [µg/mL] | SMILES | CC50 [1] [µg/mL] | CI (chemotherapeutic index) (enterovirus type 70) |
| --- | --- | --- | --- |
| 0.98 | CCc1ccc2[nH]c(CNc3ccncc3)nc2c1 [Compound X, 2-(4-pyridylaminomethyl)-5(6)-ethylbenzimidazole dihydrochloride] | 354 | 362 |
| 3.7 | Cl.Cl.c1ccc2[nH]c(CNc3ccncc3)nc2c1 [Compound I, 2-(4-pyridylaminomethyl) benzimidazole dihydrochloride] | 562 | 152 |
| 1.8 | Cc1ccc2[nH]c(CNc3ccncc3)nc2c1 [Compound V, 2-(4-pyridylaminomethyl)-5(6)-methylbenzimidazole dihydrochloride] | 562 | 311 |
| 5.5 | FC(F)(F)c1ccc2[nH]c(CNc3ccncc3)nc2c1 [Compound IX, 2-(4-pyridylaminomethyl)-5(6)-trifluoromethylbenzimidazole dihydrochloride] | 354 | 64 |
| 1.8 | Clc1ccc2[nH]c(CNc3ccncc3)nc2c1 [Compound II, 2-(4-pyridylaminomethyl)-5(6)-chlorobenzimidazole dihydrochloride] | 178 | 99 |
| > 100 | Cc1cccc2[nH]c(CNc3ccncc3)nc12 [Compound XI, 2-(4-pyridylaminomethyl)-4(7)-methylbenzimidazole dihydrochloride] | > 100 | – |
| > 100 | Nc1ccc2[nH]c(CNc3ccncc3)nc2c1 [Compound VIII, 2-(4-pyridylaminomethyl)-5(6)-aminobenzimidazole trihydrochloride] | > 100 | – |
| > 100 | O=C(c1ccccc1)c1ccc2[nH]c(CNc3ccncc3)nc2c1 [Compound III, 2-(4-pyridylaminomethyl)-5(6)-benzoylbenzimidazole dihydrochloride] | > 100 | – |
| > 100 | O=[N+]([O-])c1ccc2[nH]c(CNc3ccncc3)nc2c1 [Compound VI, 2-(4-pyridylaminomethyl)-5(6)-nitrobenzimidazole dihydrochloride] | > 100 | – |
| 27.6 | COc1ccc2[nH]c(CNc3ccncc3)nc2c1 [Compound IV, 2-(4-pyridylaminomethyl)-5(6)-methoxybenzimidazole dihydrochloride] | 1770 | 64 |
| 3 | Cc1cc2nc(CNc3ccncc3)[nH]c2cc1C.Cl.Cl [Compound XII, 2-(4-pyridylaminomethyl)-5,6-dimethylbenzimidazole dihydrochloride] | 707 | 239 |
| 1.4 | Cl.Cl.Clc1cc2nc(CNc3ccncc3)[nH]c2cc1Cl [Compound VII, 2-(4-pyridylaminomethyl)-5,6-dichlorobenzimidazole dihydrochloride] | 177 | 126 |
